From patent publication US5225411A, “Disubstituted polymethyleneimines” (priority 1990, dated 1993)

Experiments:
[1] = system: murine leukaemia P 388/ADR 10; assay: Evaluation of the increase in cytotoxicity of adriamycin on the line P 388/ADR-10 in vitro (reversion factor); format: cell-based; settings: adriamycin, P 388/ADR-10, 48 h, TOX = toxic
Procedure: In this study, the cytotoxicity of adriamycin was measured in the absence and in the presence of the reversing compound.
The compounds tested for their capacity to reverse MDR are added at the same time as the cytotoxic agent. The cells are then incubated for 48 hours.

[2] = system: Chinese Hamster Pulmonary Line DC-3F/AD; assay: Increase in the cytotoxicity of actinomycin D on the Chinese hamster pulmonary line DC-3F/AD; format: cell-based; settings: 4 days;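 note: DC-3F/AD is an extremely resistant cell line whose resistance factor exceeds 10,000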
Source text: The cytotoxic agent used was actinomycin D.
Line DC-3F/AD is an extremely resistant line. Its resistance factor is higher than 10,000.

line DC-3F/AD = assay: Flow cytometry, increase in fluorescence of ADR on the line DC-3F/AD; format: cell-based, Chinese Hamster; settings: ADR 50 μM, 5 h
Procedure: (§1) By measuring that fluorescence it is possible to obtain a relative measurement of the intracellular concentration of ADR.
(§2) […] After 5 hours' incubation, the intracellular uptake of adriamycin was evaluated by FCM.
(§3) The analysis of each of the samples was carried out on a total of 10,000 cells at a speed of 1000 cells/sec.
(§4) The results were presented in the form of linear histograms of the intracellular ADR fluorescence.
(§5) Expression of the Results
(§6) For each of the histograms, the channel mean fluorescence was determined by the apparatus information system. For all experiments:
(§7) A negative control (cells without ADR) fixed the autofluorescence threshold.
(§8) A positive control (cells with ADR) determined the MEAN value=MN1.
(§9) The "test" tubes (cells with ADR and with compound) were used to determine, for each of the compounds and at each of the concentrations, the MEAN values=MN2.
(§10) The results are expressed in the form of variations from the mean fluorescence obtained for each of the "test" tubes (MN2) in relation to the mean fluorescence obtained with the […] (MNl) : VAR-MEAN=MN2 -MN1. The parameter expressed is thus the increase in the fluorescence of adriamycin in the presence of the tested compounds.

line P 388/ADR 10 = assay: Flow cytometry, increase in fluorescence of ADR on the line P 388/ADR 10; format: cell-based, murine; settings: ADR 50 μM, 5 h
Procedure: as §1, §2, §3, §4, §5, §6, §7, §8, §9, §10

**Q.** Which results are given for C=CCNc1cc(N2CCC(NCCC(c3ccccc3)c3ccccc3)CC2)nc(NCC=C)n1 [Example 9, 1-(bis-2,4-allylamino-6-pyrimidinyl)-4-(3,3-diphenylpropylamino)piperidine]?
**A.** Reversion Factor (RF) ([1]; compound 2.5 μM): 80.4; Reversion Factor (RF) ([1]; compound 5 μM): TOX; Reversion Factor (RF) ([1]; compound 10 μM): TOX; Reversion Factor (RF) ([2]; compound 2.5 μM): 94; Reversion Factor (RF) ([2]; compound 5 μM): 472; Reversion Factor (RF) ([2]; compound 10 μM): TOX; Increase in fluorescence of ADR (VAR-MEAN = MN2 - MN1) (line DC-3F/AD; compound 2 μM): 7.2; Increase in fluorescence of ADR (VAR-MEAN = MN2 - MN1) (line DC-3F/AD; compound 5 μM): 15.1; Increase in fluorescence of ADR (VAR-MEAN = MN2 - MN1) (line DC-3F/AD; compound 10 μM): 16.3; Increase in fluorescence of ADR (VAR-MEAN = MN2 - MN1) (line DC-3F/AD; compound 20 μM): 26.2; Increase in fluorescence of ADR (VAR-MEAN = MN2 - MN1) (line P 388/ADR 10; compound 2 μM): 39.2; Increase in fluorescence of ADR (VAR-MEAN = MN2 - MN1) (line P 388/ADR 10; compound 5 μM): 55.8; Increase in fluorescence of ADR (VAR-MEAN = MN2 - MN1) (line P 388/ADR 10; compound 10 μM): 65.8; Increase in fluorescence of ADR (VAR-MEAN = MN2 - MN1) (line P 388/ADR 10; compound 20 μM): TOX

**Q.** Which “Reversion Factor (RF)” value ([1]; compound 2.5 μM) does the source give for CCCCc1oc2ccccc2c1C(=O)c1cc(I)c(OCCN(CC)CC)c(I)c1 [AMIODARONE, reference compound] here?
**A.** 37.7

**Q.** And the “Reversion Factor (RF)” value ([1]; compound 5 μM)?
**A.** 104.7

**Q.** What about the “Reversion Factor (RF)” value ([1]; compound 10 μM) of the same compound?
**A.** TOX

**Q.** What about the “Reversion Factor (RF)” value ([2]; compound 5 μM) of the same compound?
**A.** 298

**Q.** What about the “Reversion Factor (RF)” value ([2]; compound 10 μM) of the same compound?
**A.** 388

**Q.** What about the “Reversion Factor (RF)” value ([2]; compound 20 μM) of the same compound?
**A.** TOX

**Q.** What about the “Increase in fluorescence of ADR (VAR-MEAN = MN2 - MN1)” value (shortened to “Increase in fluorescence of ADR”) (line DC-3F/AD; compound 2 μM) of the same compound?
**A.** 8.80

**Q.** What about the “Increase in fluorescence of ADR” value (line DC-3F/AD; compound 5 μM) of the same compound?
**A.** 16.65

**Q.** And the “Increase in fluorescence of ADR” value (line DC-3F/AD; compound 10 μM)?
**A.** 21.55

**Q.** And the “Increase in fluorescence of ADR” value (line DC-3F/AD; compound 20 μM)?
**A.** 26.35

**Q.** What about the “Increase in fluorescence of ADR” value (line P 388/ADR 10; compound 2 μM) of the same compound?
**A.** 33.40

**Q.** And the “Increase in fluorescence of ADR” value (line P 388/ADR 10; compound 5 μM)?
**A.** 65.25

**Q.** What about the “Increase in fluorescence of ADR” value (line P 388/ADR 10; compound 10 μM) of the same compound?
**A.** 76.33

**Q.** What about the “Increase in fluorescence of ADR” value (line P 388/ADR 10; compound 20 μM) of the same compound?
**A.** 95.85

**Q.** With C=CCNc1nc(NCC=C)nc(NC2CCN(CC(c3ccccc3)c3ccccc3)CC2)n1 [Example 3, 4-[4,6-bis(allylamino)-2-s-triazinyl]amino-1-(2,2diphenylethyl)piperidine] as the compound, how does the “Reversion Factor (RF)” value ([1]; compound 2.5 μM) read?
**A.** 39

**Q.** And the “Reversion Factor (RF)” value ([1]; compound 5 μM)?
**A.** 70

**Q.** What about the “Reversion Factor (RF)” value ([1]; compound 10 μM) of the same compound?
**A.** 134.8

**Q.** And the “Reversion Factor (RF)” value ([2]; compound 2.5 μM)?
**A.** 38

**Q.** And the “Reversion Factor (RF)” value ([2]; compound 5 μM)?
**A.** 104

**Q.** What about the “Reversion Factor (RF)” value ([2]; compound 10 μM) of the same compound?
**A.** 240

**Q.** What about the “Increase in fluorescence of ADR” value (line DC-3F/AD; compound 2 μM) of the same compound?
**A.** 8.0

**Q.** What about the “Increase in fluorescence of ADR” value (line DC-3F/AD; compound 5 μM) of the same compound?
**A.** 19.9

**Q.** And the “Increase in fluorescence of ADR” value (line DC-3F/AD; compound 10 μM)?
**A.** 21.6

**Q.** And the “Increase in fluorescence of ADR” value (line DC-3F/AD; compound 20 μM)?
**A.** 19.3

**Q.** And the “Increase in fluorescence of ADR” value (line P 388/ADR 10; compound 2 μM)?
**A.** 29.9

**Q.** What about the “Increase in fluorescence of ADR” value (line P 388/ADR 10; compound 5 μM) of the same compound?
**A.** 46.2

**Q.** What about the “Increase in fluorescence of ADR” value (line P 388/ADR 10; compound 10 μM) of the same compound?
**A.** 66.0

**Q.** And the “Increase in fluorescence of ADR” value (line P 388/ADR 10; compound 20 μM)?
**A.** 73.1

**Q.** For C=CCNc1nc(NCC=C)nc(N2CCC(N(C)CC(c3ccccc3)c3ccccc3)CC2)n1 [Example 4, 1-[4,6-bis(allylamino)-2-s-triazinyl)-4-[N-(2,2-di-phenylethyl)-N-methylamino]piperidine], which “Reversion Factor (RF)” value ([1]; compound 2.5 μM) is on record?
**A.** 34.7

**Q.** What about the “Reversion Factor (RF)” value ([1]; compound 5 μM) of the same compound?
**A.** 32.3

**Q.** What about the “Reversion Factor (RF)” value ([1]; compound 10 μM) of the same compound?
**A.** 171.1

**Q.** What about the “Reversion Factor (RF)” value ([2]; compound 5 μM) of the same compound?
**A.** 218

**Q.** And the “Reversion Factor (RF)” value ([2]; compound 10 μM)?
**A.** 1256

**Q.** What about the “Increase in fluorescence of ADR” value (line DC-3F/AD; compound 2 μM) of the same compound?
**A.** 12.3

**Q.** What about the “Increase in fluorescence of ADR” value (line DC-3F/AD; compound 5 μM) of the same compound?
**A.** 24.1

**Q.** And the “Increase in fluorescence of ADR” value (line DC-3F/AD; compound 10 μM)?
**A.** 41.9

**Q.** What about the “Increase in fluorescence of ADR” value (line DC-3F/AD; compound 20 μM) of the same compound?
**A.** 49.0

**Q.** With C=CCNc1nc(NCC=C)nc(N2CCC(NCC(c3cc(OC)cc(OC)c3)c3ccccc3C)CC2)n1 (centres unmarked) [Example 10, 1-[4,6-bis(allylamino)-2-s-triazinyl]-4-[2-(3,5-dimethoxyphenyl)-2-(2-methylphenyl)ethylamino]piperidine] as the compound, how does the “Reversion Factor (RF)” value ([1]; compound 2.5 μM) read?
**A.** 125.1

**Q.** And the “Reversion Factor (RF)” value ([1]; compound 5 μM)?
**A.** 75.3

**Q.** And the “Reversion Factor (RF)” value ([1]; compound 10 μM)?
**A.** TOX

**Q.** What about the “Reversion Factor (RF)” value ([2]; compound 2.5 μM) of the same compound?
**A.** 259

**Q.** And the “Reversion Factor (RF)” value ([2]; compound 5 μM)?
**A.** 1347

**Q.** What about the “Reversion Factor (RF)” value ([2]; compound 10 μM) of the same compound?
**A.** TOX

**Q.** And the “Increase in fluorescence of ADR” value (line DC-3F/AD; compound 2 μM)?
**A.** 14.8

**Q.** What about the “Increase in fluorescence of ADR” value (line DC-3F/AD; compound 5 μM) of the same compound?
**A.** 24.7

**Q.** What about the “Increase in fluorescence of ADR” value (line DC-3F/AD; compound 10 μM) of the same compound?
**A.** 26.5

**Q.** What about the “Increase in fluorescence of ADR” value (line DC-3F/AD; compound 20 μM) of the same compound?
**A.** 28.2

**Q.** And the “Increase in fluorescence of ADR” value (line P 388/ADR 10; compound 2 μM)?
**A.** 52.0

**Q.** And the “Increase in fluorescence of ADR” value (line P 388/ADR 10; compound 5 μM)?
**A.** 75.3

**Q.** And the “Increase in fluorescence of ADR” value (line P 388/ADR 10; compound 10 μM)?
**A.** 84.0

**Q.** What about the “Increase in fluorescence of ADR” value (line P 388/ADR 10; compound 20 μM) of the same compound?
**A.** 78.0
